Assay [1] concerns the target T1, Prothrombin (Homo sapiens, UniProt P00734). Kind of assay: Binding affinity to thrombin by surface plasmon resonance assay. On the technique in general: Surface plasmon resonance follows binding to a sensor surface in real time, without labels.
In assay [2] the target is T1, Prothrombin. Kind of assay: Binding affinity to thrombin in presence of 100 mJ/cm'2 UV light by surface plasmon resonance assay.

As for `Cc1cn([C@H]2C[C@H](OP(=O)(O)OC[C@H]3O[C@@H](n4cnc5c(=O)[nH]c(N)nc54)[C@H](O)[C@@H]3OP(=O)(O)OC[C@H]3O[C@@H](n4cnc5c(=O)[nH]c(N)nc54)[C@H](O)[C@@H]3OP(=O)(O)OC[C@H]3O[C@@H](n4cc(C)c(=O)[nH]c4=O)C[C@@H]3OP(=O)(O)OC[C@H]3O[C@@H](n4cc(C)c(=O)[nH]c4=O)C[C@@H]3OP(=O)(O)OC[C@H]3O[C@@H](n4cnc5c(=O)[nH]c(N)nc54)[C@H](O)[C@@H]3OP(=O)(O)OC[C@H]3O[C@@H](n4cnc5c(=O)[nH]c(N)nc54)[C@H](O)[C@@H]3O)[C@@H](COP(=O)(O)O[C@H]3[C@@H](O)[C@H](n4cnc5c(=O)[nH]c(N)nc54)O[C@@H]3COP(=O)(O)O[C@H]3C[C@H](n4cc(C)c(=O)[nH]c4=O)O[C@@H]3COP(=O)(O)O[C@H]3[C@@H](O)[C@H](n4cnc5c(=O)[nH]c(N)nc54)O[C@@H]3COP(=O)(O)O[C@H]3[C@@H](O)[C@H](n4cnc5c(=O)[nH]c(N)nc54)O[C@@H]3COP(=O)(O)O[C@H]3C[C@H](n4cc(C)c(=O)[nH]c4=O)O[C@@H]3COP(=O)(O)O[C@H]3C[C@H](n4cc(C)c(=O)[nH]c4=O)O[C@@H]3COP(=O)(O)O[C@H]3[C@@H](O)[C@H](n4cnc5c(=O)[nH]c(N)nc54)O[C@@H]3COP(=O)(O)O[C@H]3[C@@H](O)[C@H](n4cnc5c(=O)[nH]c(N)nc54)O[C@@H]3CO)O2)c(=O)[nH]c1=O` [THROMBIN APTAMER], the Kd at Prothrombin [1] amounted to 320 nM; on Prothrombin [2], 390 nM.

Usually Kd stands for the equilibrium constant for the complex coming apart.

The values are drawn from ChEMBL document CHEMBL1154228, “Photoregulation of thrombin aptamer activity using Bhc caging strategy” (Bioorg Med Chem Lett, 2009).
